Earlier results as cited in PMC9917560, “Design, Synthesis and Antimicrobial Evaluation of New N-(1-Hydroxy-1,3-dihydrobenzo[c][1,2]oxaborol-6-yl)(hetero)aryl-2-carboxamides as Potential Inhibitors of Mycobacterial Leucyl-tRNA Synthetase” (International Journal of Molecular Sciences, 2023).
Marks after values point to notes of the source that are not given here.

What was measured:
Mtb H37Rv = system: Mtb H37Rv; design: method as in PMID 27503647; conditions: compounds synthesized and evaluated by Palencia et al. ref [13]; cited from earlier work
Mtb LeuRS = system: Mtb LeuRS; design: method as in PMID 27503647, PMID 28953378; conditions: ref [13],[14]; read-out: IC50 against LeuRS; cited from earlier work

Row | Structure (SMILES) | MIC Mtb H37Rv (Mtb H37Rv) | IC50 (Mtb LeuRS) [nM]
1 | OB1OCc2ccccc21 [Compound C00021, (3H)-Benzo[c][1,2]oxaborol-1-ol] | 55.99 * µM | 
2 | NC[C@H]1OB(O)c2c(OCCO)ccc(Cl)c21 [GSK656, (S)-3-(Aminomethyl)-4-chloro-7-(2hydroxyethoxy)benzo c 1,2 oxaborol-1(3 H)-ol] |  | 200
